Measurements taken from publication PMC10122656, “Siglec-6 mediates the uptake of extracellular vesicles through a noncanonical glycolipid binding pocket” (Nature Communications, 2023).
Where “and” joins values, the source holds several entries; their conditions need not be identical. Equal values may be shown once.

Assays:
Siglec-1 fragment = Siglec-1 fragment (Homo sapiens, UniProt Q9BZZ2); test: Direct ESI-MS binding assay; conditions: oligosaccharide moiety of the ganglioside; 3.6 µM Siglec-1 fragment, 20-140 µM ligand; table gives replicates, text mean ± SD; read-out: dissociation constant (Kd) of soluble Siglec-1 to the ganglioside oligosaccharide
Procedure: The affinities of ganglioside (GM1, GM2, GM3, and GD1a) oligosaccharides (L) for the Siglec-1 fragment were measured by the direct ESI-MS assay[1]. A reference protein (Pref) was added to the ESI solutions in order to correct mass spectra for any nonspecific binding that occurred during the ESI process[2]. […] Direct ESI-MS measurements were performed with nanoflow ESI in positive ion mode (voltage ~1 kV) on a Q-Exactive Orbitrap mass spectrometer (Thermo Fisher Scientific). Automatic gain control (AGC) target, the maximum inject time, capillary temperature, and S-lens RF level were set to 1 × 10^6, 100 ms, 150, and 100 °C, respectively. The resolution was 17,500 at m/z 200. Data acquisition and processing were carried out using Xcalibur (Thermo Fisher, version 4.1).

WT Siglec-6 CHO cells = target: T1, WT Siglec-6 CHO cells (Homo sapiens, UniProt O43699); test: Cell assay (liposome/EV binding, flow cytometry);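 on liposome binding, fluorescence signal (replicates): AF647 fluorescence intensity from 0.1 mol% AF647–PEG45–DSPE in liposomes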; assay type: cell-based; conditions: for Binding of liposomes to WT Siglec-6 CHO cells relative to liposomes formulated without a ligand (Fig. 3c): 3 mol% glycolipid, Cer = native ganglioside, Amide = amide-linked nGL; for Binding of liposomes to WT Siglec-6 CHO cells relative to liposomes formulated without a ligand (Fig. 3c) / Binding of nGL liposomes relative to liposomes formulated with 3 mol% nGL 5 (Fig. 3g): replicates; for nGLL binding to WT Siglec-6 CHO cells (in words): 3 mol% nGL in liposomes; for Binding of nGL liposomes relative to liposomes formulated with 3 mol% nGL 5 (Fig. 3g): WT Siglec-6 CHO cells
T1 construct: expressed in transfected cells
Procedure: (§1) Stock lipids (DSPC, Cholesterol, PEG45–DSPE) solutions were prepared by solvating the lipids in chloroform. An appropriate volume of each lipid solution was transferred to a glass test tube to reach the desired mol% of the component. The chloroform was then removed under N2 gas to yield a lipid thin film. Once dry, 100 µL of DMSO was added to the lipid-containing test tube and then the functional lipids (ganglioside, AF647–PEG45–DSPE, Siglec ligand–PEG45–DSPE, pHrodo–PEG45–DSPE, NGL) was added from their respect DMSO stock solution. The lipid mixture was then stored at −80 °C until completely frozen at which point excess DMSO was removed via lyophilization. Dry lipids were then stored at −80 °C until they were extruded. Lipid suppliers can be found in Supplementary Table 4.
(§2) Dry lipids were then hydrated in 1 mL of PBS. The lipids were then sonicated in a bath sonicator in a cycle of 1 min on, 5 min off for a total of five cycles. Liposomes were then extruded using an Avanti mini extruder first using an 800 nm filter and then a 100 nm filter yielding liposomes that were 130 ± 35 nm (Supplementary Table 5) measured using a Malvern Panalytical Zetasizer Nano S. Liposomes were stored at 4 °C.
(§3) 200,000 cells/well were plated into a 96-well U-bottom microplate and centrifuged at 300 × g for 5 min. The cells were then resuspended in 50 µL of 50 µM liposome/50 µg/mL (protein concentration) of EV solution in DMEM F12 5% FBS and incubated at 37 °C for 30 min. Excess liposomes were then removed via centrifuged at 300 × g for 5 min followed by washing the cells with FACS solution. The cells were then resuspended in (1:250 V/V) anti-Siglec-flow buffer (1% V/V FBS, 500 µM, EDTA Hank’s Balanced Salt Solution pH 7.4), solution and left to rest on ice for 30 min. The cells were then centrifuged again at 300 × g for 5 min and the cells were resuspended in FACS buffer solution and were then ready for analysis by flow cytometry. Information regarding antibody clone, catalog number supplier, label isotype, and dilution can be found in Supplementary Table 6. The Siglec-positive cells were gated on for liposome-binding analysis (Supplementary Fig. 1b).
(§4) Flow cytometry measurements were collected on a 5-laser Fortessa X-20 (BD Bioscience). All the resulting data were analyzed using FlowJo (10.5.3) software (BD Biosciences).

R122A Siglec-6 CHO cells = target: T2, R122A Siglec-6 CHO cells (Homo sapiens, UniProt O43699, R122A); test: Cell assay (liposome/EV binding, flow cytometry);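 on liposome binding, fluorescence signal (replicates): AF647 fluorescence intensity from 0.1 mol% AF647–PEG45–DSPE in liposomes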; assay type: cell-based; conditions: for nGLL binding to R122A Siglec-6 CHO cells (in words): 3 mol% nGL in liposomes, compared to 3 mol% 5; for Binding of nGL liposomes relative to liposomes formulated with 3 mol% nGL 5 (Fig. 3g): R122A Siglec-6 CHO cells, replicates; for liposome binding, fluorescence signal (replicates): sheet Figure S18b, cells not given
T2 construct: expressed in transfected cells
Procedure: as §1, §2, §3, §4

[1] = tested on: untransfected (UT) CHO cells; test: Cell assay (liposome/EV binding, flow cytometry); assay type: cell-based, Chinese Hamster; conditions: sheet Figure S22b, CHO;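 further: AF647 fluorescence intensity from 0.1 mol% AF647–PEG45–DSPE in liposomes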
Procedure: as §1, §2, §3, §4

WT Siglec-1 CHO cells = target: T3, WT Siglec-1 CHO cells (Homo sapiens, UniProt Q9BZZ2); test: Cell assay (liposome/EV binding, flow cytometry); assay type: cell-based; set-up: GM1 liposome binding to Siglec-1 CHO cells, flow cytometry (Fig. 1b) / Binding of liposomes with increasing ganglioside content against Siglec-1 CHO cells (Fig. 1c) / Liposome binding to Siglec-1-expressing CHO cells in the cell assay (Fig. 1f): unit not given here
T3 construct: expressed in transfected cells
Procedure: as §1, §2, §3, §4

[2] = sheet Figure S17, cells not given, three experiments, each with its own Naked control
[3] = sheet Figure S18a, cells not given

T1 sequence (O43699 27-453): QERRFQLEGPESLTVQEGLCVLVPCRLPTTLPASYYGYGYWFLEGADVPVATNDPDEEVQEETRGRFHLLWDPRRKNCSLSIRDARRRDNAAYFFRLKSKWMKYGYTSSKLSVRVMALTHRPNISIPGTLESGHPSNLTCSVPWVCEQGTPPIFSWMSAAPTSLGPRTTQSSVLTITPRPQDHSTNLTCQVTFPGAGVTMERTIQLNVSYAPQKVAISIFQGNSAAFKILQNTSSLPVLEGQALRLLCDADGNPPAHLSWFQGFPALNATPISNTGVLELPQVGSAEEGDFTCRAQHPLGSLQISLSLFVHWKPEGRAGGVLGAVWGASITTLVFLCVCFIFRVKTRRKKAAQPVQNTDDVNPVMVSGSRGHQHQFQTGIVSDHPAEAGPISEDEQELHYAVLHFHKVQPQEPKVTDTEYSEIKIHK
T3 sequence (Q9BZZ2 20-1709): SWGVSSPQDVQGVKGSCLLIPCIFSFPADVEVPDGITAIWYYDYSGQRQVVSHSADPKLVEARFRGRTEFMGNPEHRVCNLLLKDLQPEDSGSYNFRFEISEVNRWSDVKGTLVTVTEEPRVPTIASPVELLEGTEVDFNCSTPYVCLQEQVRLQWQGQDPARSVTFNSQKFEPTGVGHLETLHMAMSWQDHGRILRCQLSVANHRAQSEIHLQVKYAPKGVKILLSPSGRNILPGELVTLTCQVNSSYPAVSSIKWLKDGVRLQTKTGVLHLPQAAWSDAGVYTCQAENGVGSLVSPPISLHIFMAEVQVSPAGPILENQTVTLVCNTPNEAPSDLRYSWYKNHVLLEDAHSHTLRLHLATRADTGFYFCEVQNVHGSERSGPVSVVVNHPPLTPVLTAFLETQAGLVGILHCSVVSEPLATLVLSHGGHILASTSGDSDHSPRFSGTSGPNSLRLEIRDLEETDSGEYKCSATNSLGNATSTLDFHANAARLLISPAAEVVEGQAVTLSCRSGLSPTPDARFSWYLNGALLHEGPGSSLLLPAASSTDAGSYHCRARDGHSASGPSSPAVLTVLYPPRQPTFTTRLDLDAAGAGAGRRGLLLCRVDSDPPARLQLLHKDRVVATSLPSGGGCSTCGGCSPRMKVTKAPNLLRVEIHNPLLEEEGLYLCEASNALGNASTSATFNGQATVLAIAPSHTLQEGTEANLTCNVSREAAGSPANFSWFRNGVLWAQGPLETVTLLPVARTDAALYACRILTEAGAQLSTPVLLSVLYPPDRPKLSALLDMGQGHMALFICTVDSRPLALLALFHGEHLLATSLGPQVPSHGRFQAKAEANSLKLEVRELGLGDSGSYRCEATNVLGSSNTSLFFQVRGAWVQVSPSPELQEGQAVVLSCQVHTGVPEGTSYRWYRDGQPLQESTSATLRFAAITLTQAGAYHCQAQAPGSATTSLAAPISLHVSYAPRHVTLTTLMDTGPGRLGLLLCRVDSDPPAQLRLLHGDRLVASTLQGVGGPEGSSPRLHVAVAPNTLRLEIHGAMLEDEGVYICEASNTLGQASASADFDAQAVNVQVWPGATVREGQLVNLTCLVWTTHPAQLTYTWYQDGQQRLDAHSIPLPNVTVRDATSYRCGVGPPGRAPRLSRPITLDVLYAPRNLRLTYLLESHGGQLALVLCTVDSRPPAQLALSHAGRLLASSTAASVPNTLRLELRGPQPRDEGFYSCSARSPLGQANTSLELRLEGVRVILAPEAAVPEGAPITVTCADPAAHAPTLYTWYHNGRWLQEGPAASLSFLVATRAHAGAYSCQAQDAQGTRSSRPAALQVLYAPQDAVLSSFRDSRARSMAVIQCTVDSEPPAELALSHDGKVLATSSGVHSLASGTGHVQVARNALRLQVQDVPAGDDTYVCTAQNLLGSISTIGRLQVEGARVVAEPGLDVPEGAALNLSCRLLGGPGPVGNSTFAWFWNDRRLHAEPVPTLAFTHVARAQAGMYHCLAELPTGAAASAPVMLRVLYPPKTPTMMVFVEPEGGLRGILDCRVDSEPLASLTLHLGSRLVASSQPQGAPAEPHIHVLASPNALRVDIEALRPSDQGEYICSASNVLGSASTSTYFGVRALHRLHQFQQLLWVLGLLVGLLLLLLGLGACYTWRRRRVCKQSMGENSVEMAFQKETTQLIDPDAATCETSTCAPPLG
T2 sequence (O43699 27-453 R122A): as the sequence (O43699 27-453) above, with R96A counted along it
Chain of Siglec-1 fragment (Q9BZZ2 20-136 limits assumed): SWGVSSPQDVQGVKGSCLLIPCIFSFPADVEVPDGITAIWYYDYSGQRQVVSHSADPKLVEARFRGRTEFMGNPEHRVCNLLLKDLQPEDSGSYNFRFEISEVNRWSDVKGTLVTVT

`CC(=O)N[C@H]1[C@H]([C@H](O)[C@H](O)CO)O[C@@](O[C@H]2[C@@H](O)[C@@H](CO)O[C@@H](O[C@H]3[C@H](O)[C@@H](O)C(O)O[C@@H]3CO)[C@@H]2O)(C(=O)O)C[C@@H]1O` (stereo partly drawn) [GM3 trisaccharide, α-Neup5Ac-(2 → 3)-β-lactose] gave a Kd (Siglec-1 fragment) of 500 ± 100 µM.

With `CCCCCCCCCCCCCCCCOCC(COCCCCCCCCCCCCCCCC)OCC(=O)NCCO[C@@H]1O[C@H](CO)[C@@H](O[C@@H]2O[C@H](CO)[C@H](O[C@@H]3O[C@H](CO)[C@H](O)[C@H](O[C@@H]4O[C@H](CO)[C@H](O)[C@H](O)[C@H]4O)[C@H]3NC(C)=O)[C@H](O[C@]3(C(=O)O)C[C@H](O)[C@@H](NC(C)=O)[C@H]([C@H](O)[C@H](O)CO)O3)[C@H]2O)[C@H](O)[C@H]1O` [nGL 3] the “Binding of liposomes to WT Siglec-6 CHO cells relative to liposomes formulated without a ligand (Fig. 3c)” value (WT Siglec-6 CHO cells; listed as GM1 Amide) was 0.68 and 0.67 and 0.66 and 0.75, the “nGLL binding to WT Siglec-6 CHO cells (in words)” value (WT Siglec-6 CHO cells) was “bound minimally” and the “liposome binding, fluorescence signal (replicates)” value (shortened to “liposome binding … (replicates)”) (WT Siglec-6 CHO cells; [2]) was 541 and 535 and 525 and 596.

In the case of `CCCCCCCCCCCCCCCCOCC(COCCCCCCCCCCCCCCCC)OCC(=O)NCCO[C@@H]1O[C@H](CO)[C@@H](O[C@@H]2O[C@H](CO)[C@H](O)[C@H](O[C@]3(C(=O)O)C[C@H](O)[C@@H](NC(C)=O)[C@H]([C@H](O)[C@H](O)CO)O3)[C@H]2O)[C@H](O)[C@H]1O` [nGL 4], the “Binding of liposomes to WT Siglec-6 CHO cells relative to liposomes formulated without a ligand (Fig. 3c)” value (WT Siglec-6 CHO cells; listed as GM3 Amide) is reported as 2.34 and 2.47 and 2.38 and 2.75 and the “liposome binding … (replicates)” value (WT Siglec-6 CHO cells; [2]) is reported as 713 and 752 and 727 and 839.

For `CCCCCCCCCCCCCCCCOCC(COCCCCCCCCCCCCCCCC)OCc1cn(CCO[C@@H]2O[C@H](CO)[C@@H](O[C@@H]3O[C@H](CO[C@]4(C(=O)O)C[C@H](O)[C@@H](NC(C)=O)[C@H]([C@H](O)[C@H](O)CO)O4)[C@H](O)[C@H](O)[C@H]3O)[C@H](O)[C@H]2O)nn1` [nGL 8], the “nGLL binding to R122A Siglec-6 CHO cells (in words)” value (R122A Siglec-6 CHO cells) was “bound minimally”, the “Binding of nGL liposomes relative to liposomes formulated with 3 mol% nGL 5 (Fig. 3g)” value (R122A Siglec-6 CHO cells) was 0.06 and 0.08 and 0.07 and the “liposome binding … (replicates)” value (R122A Siglec-6 CHO cells) was 599 and 635 and 605. The “nGLL binding to WT Siglec-6 CHO cells (in words)” value (WT Siglec-6 CHO cells) was “bound minimally”, the “Binding of nGL liposomes relative to liposomes formulated with 3 mol% nGL 5 (Fig. 3g)” value (WT Siglec-6 CHO cells) was 0.05 and 0.03 and 0.06 and 0.07 and the “liposome binding … (replicates)” value (WT Siglec-6 CHO cells; [3]) was 720 and 670 and 748 and 768.

With `CCCCCCCCCCCCCCCCOCC(COCCCCCCCCCCCCCCCC)OCc1cn(CCO[C@@H]2O[C@H](CO)[C@@H](O[C@@H]3O[C@H](CO)[C@H](O)[C@H](O[C@]4(C(=O)O)C[C@H](O)[C@@H](NC(C)=O)[C@H]([C@H](O)[C@H](O)CO)O4)[C@H]3O)[C@H](O)[C@H]2NC(C)=O)nn1` [nGL 9] the “Binding of nGL liposomes relative to liposomes formulated with 3 mol% nGL 5 (Fig. 3g)” value (R122A Siglec-6 CHO cells) was 0.83 and 0.93 and 0.81 and 1.01, the “liposome binding … (replicates)” value (R122A Siglec-6 CHO cells) was 1939 and 2127 and 1908 and 2268 and the “nGLL binding to WT Siglec-6 CHO cells (in words)” value (WT Siglec-6 CHO cells) was “modestly lower”. The “Binding of nGL liposomes relative to liposomes formulated with 3 mol% nGL 5 (Fig. 3g)” value (WT Siglec-6 CHO cells) was 0.77 and 0.6 and 0.59 and 0.63 and the “liposome binding … (replicates)” value (WT Siglec-6 CHO cells; [3]) was 2520 and 2097 and 2058 and 2158.

With `CCCCCCCCCCCCCCCCOCC(COCCCCCCCCCCCCCCCC)OCc1cn(CCO[C@@H]2O[C@H](CO)[C@@H](O[C@@H]3O[C@H](CO[C@]4(C(=O)O)C[C@H](O)[C@@H](NC(C)=O)[C@H]([C@H](O)[C@H](O)CO)O4)[C@H](O)[C@H](O)[C@H]3O)[C@H](O)[C@H]2NC(C)=O)nn1` [nGL 10] the “nGLL binding to R122A Siglec-6 CHO cells (in words)” value (R122A Siglec-6 CHO cells) was “bound minimally”, the “Binding of nGL liposomes relative to liposomes formulated with 3 mol% nGL 5 (Fig. 3g)” value (R122A Siglec-6 CHO cells) was 0.23 and 0.15 and 0.27 and the “liposome binding … (replicates)” value (R122A Siglec-6 CHO cells) was 899 and 894 and 758 and 962. The “nGLL binding to WT Siglec-6 CHO cells (in words)” value (WT Siglec-6 CHO cells) was “bound minimally”, the “Binding of nGL liposomes relative to liposomes formulated with 3 mol% nGL 5 (Fig. 3g)” value (WT Siglec-6 CHO cells) was 0.19 and 0.16 and 0.21 and the “liposome binding … (replicates)” value (WT Siglec-6 CHO cells; [3]) was 1069 and 1003 and 987 and 1125.

With asialo GM1 [GA1] the “liposome binding … (replicates)” value [1] was 60 and 57 and 55 and 52, the “liposome binding … (replicates)” value (WT Siglec-6 CHO cells; sheet Figure S22b, Sig-6) was 66 and 69 and 61 and 64 and the “Liposome binding to Siglec-1-expressing CHO cells in the cell assay (Fig. 1f)” value (WT Siglec-1 CHO cells; 3% glycolipid in liposome, replicates) was 71 and 68. The “binding to WT Siglec-1 CHO cells (in words)” value (WT Siglec-1 CHO cells; cell assay) was “did not mediate binding”.
